Assay [1] has as its system serotonin (5-HT)-induced itch mouse model. As to the kind of experiment: Serotonin (5-HT)-induced itch mouse model. In kind it is in vivo. The conditions noted are these: intrathecal pre-administration 30 minutes before 5-HT 50 nmol i.d.; PA-8 0.1 or 1 nmol; P6-38 100 pmol; FIG. 1. On the procedure: 5-HT (50 nmol, 10 μL) was intradermally injected into the waist of each mouse (intradermal injection, i.d.). The reaction of the mice to bite, lick or scratch the injected site was defined as an itch behavior, and the action time was measured every 5 minutes. […] SLN indicates the effects obtained in the case of administering normal saline instead of 5-HT. ACSF is an abbreviation of an artificial cerebrospinal fluid, which was a solvent for P6-38 and PA-8.

For assay [2], the system named is dry skin itch mouse model. As to the kind of experiment: Dry skin itch mouse model (AEW treatment). The assay is classed as in vivo, ICR mice. The conditions noted are these: oral PA-8 3, 10 or 30 mg/kg; observed 1 hour from 30 minutes after administration; FIG. 3. How it is done:
The present test was carried out with reference to the method of Miyamoto et al. that is a test system published as a method for evaluating itch in animals (Miyamoto T., Nojima H., Shinkado T., et al.: Itch-associated response induced by experimental dry skin in mice, Jpn. J. Phamacol., 88, 285-292, 2002).
Five-week-old ICR mice (40 mice) were each placed in a cage, and were then conditioned for 1 week. Thereafter, three days before initiation of the test, the rostral back of each mouse was shaved (treatment method A). The thus shaved 40 mice were divided into 5 groups (8 mice/group), namely, into a 3 mg/kg PA-8 oral (p.o.) administration group, a 10 mg/kg PA-8 oral (p.o.) administration group, a 30 mg/kg PA-8 oral (p.o.) administration group, a comparative group, and a control group.
In the PA-8 administration groups, the mice, which had undergone a shaving treatment (treatment method A), were subjected to ether anesthesia. Thereafter, a cotton (2×2 cm) impregnated with a mixed solution of acetone (A): diethyl ether (E) (1:1) was applied to the rostral back of each mouse for 15 seconds, and then, a cotton impregnated with ion exchange water (W) was applied thereto for 30 seconds [hereinafter, a series of treatments are abbreviated as an AEW treatment (treatment method B)]. The AEW treatment was carried out twice a day, with intervals of 8 hours, for 5 days. […]

The target of assay [3] is T1, mouse VPAC1 receptor (Mus musculus, UniProt P97751).
T1 construct: expressed in transfected cells; host or cells: CHO cells
T1 sequence (P97751 31-459): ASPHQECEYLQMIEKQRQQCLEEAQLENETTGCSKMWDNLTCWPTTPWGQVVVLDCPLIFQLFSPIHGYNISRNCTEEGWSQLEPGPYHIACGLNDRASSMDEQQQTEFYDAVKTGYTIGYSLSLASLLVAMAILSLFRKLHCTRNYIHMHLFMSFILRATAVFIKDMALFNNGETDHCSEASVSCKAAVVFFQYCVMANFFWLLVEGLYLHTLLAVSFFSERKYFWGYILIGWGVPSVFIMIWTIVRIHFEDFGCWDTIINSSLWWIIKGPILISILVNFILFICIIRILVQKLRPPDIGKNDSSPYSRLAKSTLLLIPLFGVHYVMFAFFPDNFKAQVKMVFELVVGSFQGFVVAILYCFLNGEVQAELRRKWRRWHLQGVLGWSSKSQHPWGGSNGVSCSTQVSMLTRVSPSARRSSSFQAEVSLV
Nature of the assay: CREB phosphorylation by PACAP stimulus, Western blot, VPAC1/CHO cells. In kind it is cell-based. The conditions noted are these: PA-8 10 pM to 10 nM, FIG. 4B. How it is done: The effect of each compound on the phosphorylation of CREB (cAMP-responsive element-binding protein) produced by a PACAP stimulus was examined by Western blot analysis using an anti-phosphorylated CREB (pCREB) antibody with a mouse PAC1 receptor-expressing CHO cells (PAC1/CHO cells) and a mouse VPAC1 receptor-expressing CHO cells (VPAC1/CHO cells).
Specifically, treatment with a compound (PA-8, compound 2j and compound 2o) at 10 pM to 10 nM or a solvent therefor, DMSO (VEH: 0.1% DMSO-containing phosphate buffer solution) was performed for 30 minutes, 1 nM PACAP was then added, and protein was recovered within 30 minutes after a PACAP stimulus.

Assay [4] has as its system atopic dermatitis mouse model. As to the kind of experiment: Atopic dermatitis mouse model (DNFB). The assay is classed as in vivo, ICR mice. The conditions noted are these: 30 mg/kg p.o. 30 minutes before 1 hour video observation; FIG. 13. On the procedure: The present test was carried out with reference to the method of Kitamura et al. that is a test system published as a method for evaluating itch in animals (Kitamura A., Takata R., Aizawa S., et al.: A murine model of atopic dermatitis can be generated by painting the dorsal skin with hapten twice 14 days apart, Scientific Rep., 8: 5988, 2018).
Five-week-old ICR mice (30 mice) were each placed in a cage, and were then conditioned for 1 week. Thereafter, three days before initiation of the test, the waist of each mouse was shaved. On the experiment start date, for the purpose of destroying the function of skin barrier, tape stripping was carried out, and 0.15% 2,4-dinitrofluorobenzene (DNFB) solution [acetone/olive oil (3:1)] was applied to the shaved waist of each mouse, using a 100-μIL pipette. Seven days later, the 0.15% DNFB solution was applied thereto once again, and two hours later, video observation was carried out for 1 hour. The shaved 30 mice were divided into 5 groups (6 mice per group), namely, a 30 mg/kg PA-8 oral (p.o.) administration group, a 30 mg/kg compound 2o oral (p.o.) administration group, a 30 mg/kg PA-9 oral (p.o.) administration group, a 30 mg/kg compound 3d (p.o.) administration group, and a solvent administration group (VEH: oral administration of 10% DMSO aqueous solution). Oral administration was carried out 30 minutes before initiation of the video observation.
An outline of the procedures of a behavioral experiment using the atopic dermatitis mouse model is shown in FIG. 12, and the results obtained by evaluating the time spent in scratching of each group are shown in FIG. 13.

The structures appear in SMILES notation.

For the compound `C=CCOc1ccc(C2CC(=O)Nc3nc(N)[nH]c(=O)c32)cc1OC` (stereo not shown) [PA-8], in assay [1], the “5-HT-induced itch behavior (bite, lick or scratch the injected site, action time)” value was “almost completely suppressed”. In addition, in assay [2], the “scratching behavior induced by the AEW treatment (time spent in scratching)” value was “significantly suppressed”. Moreover, in assay [3], the “CREB phosphorylation by PACAP (1 nM)” value is listed as “did not suppress CREB phosphorylation”. The “itch behavior induced by the DNFB treatment (time spent in scratching)” value in assay [4] is “significantly suppressed”.

Source of the values: patent US20220184081A1, “ANTIPRURITIC AGENT USING PAC1 RECEPTOR ANTAGONIST” (KAGOSHIMA UNIVERSITY, priority 2019, published 2022).
